{"source": "paper PMC10144242", "about": "“Design, Synthesis, In Vitro, and In Silico Insights of 5-(Substituted benzylidene)-2-phenylthiazol-4(5H)-one Derivatives: A Novel Class of Anti-Melanogenic Compounds” (Molecules, 2023)", "key": {"[1]": {"test": "ABTS cation radical scavenging assay", "conditions": "100 µM, 2 min in the dark", "text": "In addition, it has been reported that antioxidants that scavenge radicals may inhibit excess melanogenesis, because melanogenesis can be triggered by various radicals. Therefore, the 2,2′-azino-bis(3-ethylbenzothiazoline-6-sulfonic acid) (ABTS) cation radical scavenging abilities of 14 (Z)-BPT derivatives were studied using Trolox as a positive control. The ABTS cation radical is formed by transferring one electron of ABTS to K2S2O8 (potassium persulfate). To obtain an ABTS cation radical solution, a 7.4 mM ABTS solution was mixed with 2.6 mM potassium persulfate and kept in the dark at room temperature for 24 h. After adjusting the absorbance of the ABTS cation radical solution to 0.700 ± 0.03 at 732 nm, the ABTS cation radical solution was mixed with test samples (1–14 and Trolox) to a final concentration of 100 µM and kept for 2 min in the dark. The radical scavenging effects were assessed based on the absorbance measured at 732 nm.\nThe antioxidant properties of (Z)-BPT derivatives 1–14 were assessed using the ABTS cation-free radical scavenging assay, as previously described. […] Then, methanol was used to dilute the ABTS cation-free radical solution to an absorbance of 0.70 ± 0.02 at 734 nm. […] The absorbance of each well was measured at 734 nm using a VersaMax ™ microplate reader (Molecular Devices, Sunnyvale, CA, USA). […]"}, "[2]": {"test": "In vitro ROS scavenging assay (SIN-1, esterase, DCFH-DA)", "conditions": "40 µM, SIN-1-generated ROS", "experimental": "DCFH-DA, esterase, and SIN-1 were used to measure the scavenging activity of in vitro ROS generated by SIN-1. DCFH-DA reacts with esterase to generate DCFH, which in turn, reacts with the in vitro ROS generated by SIN-1 to produce DCF. To evaluate the in vitro ROS scavenging effects of the (Z)-BPT derivatives, a concentration of 40 µM was used. […] Three derivatives, 2, 3, and 14, exerted strong scavenging abilities against both intracellular ROS and in vitro ROS.\nThe ROS scavenging abilities of (Z)-BPT derivatives 1–14 and Trolox were assessed in accordance with methods previously reported by Lebel and Bondy. Briefly, 50 mM phosphate buffer (pH 7.4) was dissolved with esterase (6 units/mL) and 1.25 mM DCFH-DA (2′,7′-dichlorodihydrofluorescein diacetate) from Molecular Probes (Eugene, OR, USA), maintained at 37 °C for 30 min, and kept on ice in the dark until use. […] Using a microplate reader (Berthold Advances GmbH & Co., Bad Wildbad, Germany), the fluorescence intensities of 2′,7′-dichlorofluorescein (DCF or oxidized DCFH) were examined at excitation and emission wavelengths of 485 nm and 535 nm, respectively. […]\nFigure 11 The scavenging effects of (Z)-BPT derivatives 1–14 on (A) intracellular ROS and (B) in vitro ROS. ROS levels were assessed using an assay with SIN-1 (an ROS generator) and DCFH-DA (an ROS-sensitive fluorescence probe). […]"}}}
{"compound": "Cc1c(C)c2c(c(C)c1O)CCC(C)(C(=O)O)O2", "note": "(centres unmarked) [Trolox]", "values": [{"measurement": "ABTS cation radical scavenging (inhibition)", "setting": "[1]", "result": 81, "unit": "%"}, {"measurement": "in vitro ROS scavenging activity", "setting": "[2]", "result": "significantly decreased the enhanced ROS levels"}]}
